Results: patent publication US20100273787A1, “KYNURENINE-AMINOTRANSFERASE INHIBITORS” (priority 2007, published 2010)

Experiments:
[1] = biological target: T1, KAT II (partially purified rat liver enzyme) (Rattus norvegicus, UniProt Q64602); assay: KAT II activity, partially purified rat liver enzyme ([3H]-kynurenine to [3H]-KYNA); type: biochemical
T1 construct: partially purified rat liver enzyme; from tissue; host or cells: rat liver
Protocol: (§1) For the measurement of KAT II activity, 100 μl of partially purified rat liver enzyme were incubated (2 hrs, 37° C.) with 100 μl of 150 mM Tris-acetate (pH 7.0), 2 μM (2.5 nCi) [^3H]-kynurenine, 1 mM pyruvate and 80 μM pyridoxal-5′-phosphate. Blanks were obtained using denatured protein preparations. The reaction was terminated by the addition of […] of 30% (w/v) trichloroacetic acid. 1 ml of 0.1 M HCl was added, and the denatured protein was removed by centrifugation. 1 ml of the supernatant was applied to a Dowex 50 W H^+cation exchange column, which was then washed with 1 ml of 0.1 M HCl, followed by 1 ml of ultrapure water. [^3H]-KYNA was subsequently eluted with 2×1 ml of ultrapure water, and radioactivity was quantified by liquid scintillation spectrometry. Human recombinant KAT II protein was also used to measure KAT II activity as described above.
(§2) Test compounds were added in 20 μl aliquots at the beginning of the incubation period to examine interference with enzyme activity.

[2] = test system: extracellular kynurenic acid (KYNA) and dopamine (DA) levels in prefrontal cortex; assay: In vivo reverse dialysis / microdialysis in rat prefrontal cortex; settings: 1 mM into prefrontal cortex for 2 hours by reverse dialysis, FIG. 2
Protocol: Microdialysis was performed in the prefrontal cortex of unanesthetized male rats (200-220 g) according to established procedures (see Eur. J. Neurosci., 4:1264-70, 1992 for methodology).
Compound (A) was also tested in the rat brain in vivo. Briefly, a concentration of 1 mM Compound (A) was introduced into the prefrontal cortex for 2 hours by reverse dialysis. A detailed description of this method can be found in J Neurosci Res 85(4):845-54, 2007 (Ceresoli-Borroni G, Guidetti P, Amori L, Pellicciari R, Schwarcz R).

[3] = biological target: Human recombinant KAT II protein (Homo sapiens, UniProt Q8N5Z0); assay: KAT II activity, human recombinant protein ([3H]-kynurenine to [3H]-KYNA); type: biochemical
Sequence of Human recombinant KAT II protein (Q8N5Z0 30-425): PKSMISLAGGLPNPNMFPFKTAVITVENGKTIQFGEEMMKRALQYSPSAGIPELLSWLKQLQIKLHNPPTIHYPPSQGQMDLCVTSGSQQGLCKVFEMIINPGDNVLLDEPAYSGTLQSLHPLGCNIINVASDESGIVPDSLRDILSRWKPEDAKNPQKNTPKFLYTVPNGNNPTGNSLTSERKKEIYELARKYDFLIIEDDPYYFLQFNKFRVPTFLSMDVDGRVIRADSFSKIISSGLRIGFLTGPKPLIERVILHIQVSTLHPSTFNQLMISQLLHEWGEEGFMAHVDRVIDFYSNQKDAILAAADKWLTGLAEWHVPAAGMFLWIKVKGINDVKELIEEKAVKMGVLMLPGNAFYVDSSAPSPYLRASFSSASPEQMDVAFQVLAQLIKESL
Protocol: as §1, §2

Kynureninase = biological target: T2, Kynureninase (Rattus norvegicus, UniProt P70712); assay: Kynureninase activity in rat liver homogenate; type: biochemical
T2 construct: determined in rat liver homogenate; from tissue; host or cells: rat liver homogenate
T2 sequence (P70712 1-464): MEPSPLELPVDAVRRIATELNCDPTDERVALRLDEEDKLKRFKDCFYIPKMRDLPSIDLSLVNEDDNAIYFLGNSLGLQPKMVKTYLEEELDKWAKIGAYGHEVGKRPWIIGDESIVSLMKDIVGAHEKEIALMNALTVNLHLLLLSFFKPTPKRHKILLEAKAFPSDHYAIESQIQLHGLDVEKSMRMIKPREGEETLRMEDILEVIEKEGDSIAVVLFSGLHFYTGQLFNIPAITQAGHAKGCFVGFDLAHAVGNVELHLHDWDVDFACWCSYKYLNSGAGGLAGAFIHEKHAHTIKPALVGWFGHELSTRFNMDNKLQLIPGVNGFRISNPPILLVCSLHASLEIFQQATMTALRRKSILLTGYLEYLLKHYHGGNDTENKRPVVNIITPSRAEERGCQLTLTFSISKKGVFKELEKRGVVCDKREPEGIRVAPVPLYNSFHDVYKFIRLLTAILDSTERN
Protocol: (§3) Kynurenine 3-hydroxylase and kynureninase activities were determined in rat liver homogenate according to established procedures (see Anal. Biochem., 205:257-62, 1992 and Neuroscience., 61:237-43, 1994 for methodology).

Kynurenine 3-hydroxylase = biological target: T3, Kynurenine 3-hydroxylase (Rattus norvegicus, UniProt O88867); assay: Kynurenine 3-hydroxylase activity in rat liver homogenate; type: biochemical
T3 construct: determined in rat liver homogenate; from tissue; host or cells: rat liver homogenate
T3 sequence (O88867 whole entry): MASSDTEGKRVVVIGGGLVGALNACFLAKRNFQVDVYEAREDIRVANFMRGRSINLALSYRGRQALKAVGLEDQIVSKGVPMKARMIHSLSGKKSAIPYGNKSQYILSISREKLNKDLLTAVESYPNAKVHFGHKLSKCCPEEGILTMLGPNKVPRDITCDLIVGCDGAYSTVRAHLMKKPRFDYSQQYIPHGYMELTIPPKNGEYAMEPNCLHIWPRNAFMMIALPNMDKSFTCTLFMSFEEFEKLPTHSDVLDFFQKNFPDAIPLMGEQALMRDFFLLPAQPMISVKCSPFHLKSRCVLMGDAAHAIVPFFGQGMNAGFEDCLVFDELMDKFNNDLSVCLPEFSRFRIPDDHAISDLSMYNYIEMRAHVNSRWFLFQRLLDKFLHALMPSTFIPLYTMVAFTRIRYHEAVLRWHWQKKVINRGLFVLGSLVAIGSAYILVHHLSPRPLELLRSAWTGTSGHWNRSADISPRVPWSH
Protocol: as §3

[4] = test system: KYNA production in rat brain tissue slices; assay: De novo production of KYNA in rat brain tissue slices; type: cell-based; settings: 6 hr at 37 degrees, FIG. 1
Protocol: The ability of Compound (A) to inhibit the de novo production of KYNA in rat brain tissue slices was also tested. A 2 μM concentration of Compound (A) was assayed as described by Gramsbergen J B, Hodgkins P S, Rassoulpour A, Turski W A, Guidetti P, Schwarcz R., (J. Neurochem., 69:290, 1997). Briefly, an aliquot of the original tissue homogenate was further diluted (1:5, v/v) in a buffer containing 5 mM Tris acetate (pH 8.0), 50 μM pyridoxal-5′-phosphate and 10 mM 2-mercapto-ethanol, and dialyzed overnight at 4 degrees. The reaction mixture containing 150 mM Tris-acetate buffer (pH 7.0), 2 μM L-kynurenine, 1 mM pyruvate, 80 μM pyridoxal-5′-phosphate and 80 μL dialysate in a total volume of […] was incubated w/wo Compound (A) for 6 hr at 37 degrees. The reaction was terminated by adding […] of 50% (w/v) trichloracetic acid and KYNA levels were measured using reverse-phase HPLC with fluorescence detection (excitation, 344 nm; emission, 398 nm).

T1 sequence (Q64602 30-425): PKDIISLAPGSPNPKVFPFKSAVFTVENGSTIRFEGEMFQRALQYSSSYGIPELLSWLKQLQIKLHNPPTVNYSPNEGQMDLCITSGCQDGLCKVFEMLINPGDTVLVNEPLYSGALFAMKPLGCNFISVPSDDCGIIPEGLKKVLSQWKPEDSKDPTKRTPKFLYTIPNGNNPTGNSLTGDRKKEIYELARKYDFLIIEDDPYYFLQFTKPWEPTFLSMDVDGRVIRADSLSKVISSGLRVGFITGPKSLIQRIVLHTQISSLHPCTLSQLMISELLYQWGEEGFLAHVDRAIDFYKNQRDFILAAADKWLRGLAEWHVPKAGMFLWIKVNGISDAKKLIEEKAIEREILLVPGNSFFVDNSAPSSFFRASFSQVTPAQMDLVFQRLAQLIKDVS

IC50 [1]: 2 µM | IC50 ([3]; human recombinant protein): 0.2 µM | times more active against human KAT II than against rat KAT II ([3]; human vs rat KAT II): 10 times | times more active than UPF 874 as a KAT II inhibitor in humans ([3]; relative to UPF 874): 3000 times | IC50 (Kynureninase): > 2000 µM | IC50 (Kynurenine 3-hydroxylase): > 1000 µM
Compound: C[C@H]1COc2c(N3CCN(N)CC3)c(F)cc3c(=O)c(C(=O)O)cn1c23.O=C(O)C(F)(F)F [Compound (A), (S)-(−)-9-(4-Aminopiperazin-1-yl)-8-fluoro-3-methyl-6-oxo-2,3-dihydro-6H-1-oxa-3a-aza-phenalene-5-carboxylic acid trifluoroacetate]
increase of extracellular dopamine (DA) levels [2]: > 2.5 fold | reduction of extracellular kynurenic acid (KYNA) levels [2]: ~40% | inhibition of de novo production of KYNA from L-kynurenine [4]: dose-dependently inhibit
